Where a SMILES comes first, the peptide text is derived from it. Bridges are numbered along the chain shown (N, C = ends).
Columns and labels:
Assay type in all cases: cell-based
GLP-1 receptor = molecular target: T1, GLP-1 receptor (Homo sapiens, UniProt P43220); experiment: cAMP synthesis functional assay (firefly luciferase reporter in HEK293 cells), GLP-1 receptor; details: Table 1; for GLP-1 Receptor relative activity: relative to the native hormone of the indicated receptor
T1 construct: expressed in transfected cells; host or cells: HEK293
T1 sequence (P43220 24-463, species assumed): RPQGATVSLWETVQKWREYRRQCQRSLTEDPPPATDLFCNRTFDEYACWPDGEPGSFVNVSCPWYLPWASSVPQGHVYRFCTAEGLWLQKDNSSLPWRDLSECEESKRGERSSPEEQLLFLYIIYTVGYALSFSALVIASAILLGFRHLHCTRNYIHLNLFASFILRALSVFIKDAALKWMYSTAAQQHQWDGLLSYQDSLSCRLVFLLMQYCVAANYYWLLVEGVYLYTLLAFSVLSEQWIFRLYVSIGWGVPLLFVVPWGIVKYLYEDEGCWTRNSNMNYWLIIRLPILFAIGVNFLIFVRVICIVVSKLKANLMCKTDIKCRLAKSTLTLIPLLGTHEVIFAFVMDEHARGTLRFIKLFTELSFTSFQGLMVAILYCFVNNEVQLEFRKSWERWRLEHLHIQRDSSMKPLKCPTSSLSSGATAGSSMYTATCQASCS

GIP receptor = molecular target: T2, GIP receptor (Homo sapiens, UniProt P48546); experiment: cAMP synthesis functional assay (firefly luciferase reporter in HEK293 cells), GIP receptor; details: Table 1; relative to the native hormone of the indicated receptor
T2 construct: expressed in transfected cells; host or cells: HEK293
T2 sequence (P48546 22-466): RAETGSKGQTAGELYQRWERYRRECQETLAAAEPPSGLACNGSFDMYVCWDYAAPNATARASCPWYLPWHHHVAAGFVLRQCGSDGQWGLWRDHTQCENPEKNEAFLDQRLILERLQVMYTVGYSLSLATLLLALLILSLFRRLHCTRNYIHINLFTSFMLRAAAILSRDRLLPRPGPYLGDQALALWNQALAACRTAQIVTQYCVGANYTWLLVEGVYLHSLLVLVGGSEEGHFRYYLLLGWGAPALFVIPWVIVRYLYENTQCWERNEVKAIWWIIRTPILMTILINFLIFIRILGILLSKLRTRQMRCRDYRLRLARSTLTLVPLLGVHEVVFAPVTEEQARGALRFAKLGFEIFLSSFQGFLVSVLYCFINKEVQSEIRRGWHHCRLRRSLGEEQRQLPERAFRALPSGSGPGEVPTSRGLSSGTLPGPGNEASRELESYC

glucagon receptor = molecular target: T3, glucagon receptor (Homo sapiens, UniProt P47871); experiment: cAMP synthesis functional assay (firefly luciferase reporter in HEK293 cells), glucagon receptor; details: Table 1; for Glucagon Receptor relative activity: relative to the native hormone of the indicated receptor
T3 construct: expressed in transfected cells; host or cells: HEK293
T3 sequence (P47871 26-477): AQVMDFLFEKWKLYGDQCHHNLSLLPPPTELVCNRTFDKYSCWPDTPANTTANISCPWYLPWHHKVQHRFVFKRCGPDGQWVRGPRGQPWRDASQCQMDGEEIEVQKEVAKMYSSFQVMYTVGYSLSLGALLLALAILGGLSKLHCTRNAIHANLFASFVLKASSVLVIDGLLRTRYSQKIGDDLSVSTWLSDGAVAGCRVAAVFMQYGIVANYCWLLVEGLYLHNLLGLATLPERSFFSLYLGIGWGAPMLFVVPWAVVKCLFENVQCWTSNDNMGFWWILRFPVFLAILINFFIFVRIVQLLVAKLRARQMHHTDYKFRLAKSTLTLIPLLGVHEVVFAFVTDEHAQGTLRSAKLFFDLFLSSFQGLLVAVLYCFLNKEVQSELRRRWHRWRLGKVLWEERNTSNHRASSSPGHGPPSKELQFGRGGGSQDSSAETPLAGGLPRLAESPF

For `CC[C@H](C)[C@H](NC(=O)[C@H](CO)NC(=O)[C@H](Cc1ccc(O)cc1)NC(=O)[C@H](CC(=O)O)NC(=O)[C@H](CO)NC(=O)[C@@H](NC(=O)[C@H](Cc1ccccc1)NC(=O)[C@@H](NC(=O)CNC(=O)[C@H](CCC(=O)O)NC(=O)[C@H](C)NC(=O)[C@@H](N)Cc1ccc(O)cc1)[C@@H](C)O)[C@@H](C)CC)C(=O)N[C@@H](C)C(=O)N[C@@H](CCSC)C(=O)N[C@@H](CC(=O)O)C(=O)N[C@@H](CCCCN)C(=O)N[C@H](C(=O)N[C@@H](Cc1c[nH]cn1)C(=O)N[C@@H](CCC(N)=O)C(=O)N[C@@H](CCC(N)=O)C(=O)N[C@@H](CC(=O)O)C(=O)N[C@@H](Cc1ccccc1)C(=O)N[C@H](C(=O)N[C@@H](CC(N)=O)C(=O)N[C@@H](Cc1c[nH]c2ccccc12)C(=O)N[C@@H](CC(C)C)C(=O)N[C@@H](CC(C)C)C(=O)N[C@@H](C)C(=O)N[C@@H](CCC(N)=O)C(=O)N[C@@H](CCCCN)C(=O)NCC(=O)N[C@@H](CCCCN)C(=O)N[C@@H](CCCCN)C(=O)N[C@@H](CC(N)=O)C(=O)N[C@@H](Cc1c[nH]c2ccccc12)C(=O)N[C@@H](CC(C)C)C(=O)N[C@@H](CCCCN)C(=O)N[C@@H](Cc1c[nH]cn1)C(=O)N[C@@H](CC(N)=O)C(=O)N[C@H](C(=O)N[C@H](C(=O)N[C@@H](CCC(N)=O)C(N)=O)[C@@H](C)O)[C@@H](C)CC)C(C)C)[C@@H](C)CC` [mt-99], the “GLP-1 Receptor relative activity” value (GLP-1 receptor) was 0.00%, the “GIP Receptor relative activity” value (GIP receptor) was 100.00% and the “Glucagon Receptor relative activity” value (glucagon receptor) was 0.00%.

For `CC[C@H](C)[C@H](NC(=O)[C@H](Cc1ccccc1)NC(=O)[C@H](CCC(=O)O)NC(=O)[C@@H]1CCCCNC(=O)CC[C@H](NC(=O)[C@H](CC(=O)O)NC(=O)[C@H](CC(C)C)NC(=O)[C@H](Cc2ccc(O)cc2)NC(=O)[C@H](CCCCN)NC(=O)[C@H](CO)NC(=O)[C@H](Cc2ccc(O)cc2)NC(=O)[C@H](CC(=O)O)NC(=O)[C@H](CO)NC(=O)[C@@H](NC(=O)[C@H](Cc2ccccc2)NC(=O)[C@@H](NC(=O)CNC(=O)[C@H](CCC(N)=O)NC(=O)[C@H](CO)NC(=O)[C@@H](N)Cc2c[nH]cn2)[C@@H](C)O)[C@@H](C)CC)C(=O)N[C@@H]([C@@H](C)CC)C(=O)N[C@@H](Cc2c[nH]cn2)C(=O)N[C@@H](CCC(N)=O)C(=O)N1)C(=O)N[C@@H](C)C(=O)N[C@@H](Cc1c[nH]c2ccccc12)C(=O)N[C@@H](CC(C)C)C(=O)N[C@@H](CCSC)C(=O)N[C@@H](CC(N)=O)C(=O)N[C@H](C(N)=O)[C@@H](C)O` [mt-107] (H-HSQGTFISDYSKYLDEIHQKEFIAWLMNT-NH2; lactam 16-20; N-terminus assumed), the “GLP-1 Receptor relative activity” value (GLP-1 receptor) was 0.16%, the “GIP Receptor relative activity” value (GIP receptor) was 0.74% and the EC50 (glucagon receptor; Glucagon Receptor EC50, nM) was 0.07 nM. For the same molecule, the “Glucagon Receptor relative activity” value (glucagon receptor) was 185.71%.

In the case of `CC[C@H](C)[C@H](NC(=O)[C@H](Cc1ccccc1)NC(=O)[C@H](CCC(=O)O)NC(=O)[C@@H]1CCCCNC(=O)CC[C@H](NC(=O)[C@H](CC(=O)O)NC(=O)[C@H](CC(C)C)NC(=O)[C@H](C)NC(=O)[C@H](CCCCN)NC(=O)[C@H](CO)NC(=O)[C@H](Cc2ccc(O)cc2)NC(=O)[C@H](CC(=O)O)NC(=O)[C@H](CO)NC(=O)[C@@H](NC(=O)[C@H](Cc2ccccc2)NC(=O)[C@@H](NC(=O)CNC(=O)[C@H](CCC(N)=O)NC(=O)[C@H](CO)NC(=O)[C@@H](N)Cc2c[nH]cn2)[C@@H](C)O)[C@@H](C)CC)C(=O)N[C@@H]([C@@H](C)CC)C(=O)N[C@@H](Cc2c[nH]cn2)C(=O)N[C@@H](CCC(N)=O)C(=O)N1)C(=O)N[C@@H](C)C(=O)N[C@@H](Cc1c[nH]c2ccccc12)C(=O)N[C@@H](CC(C)C)C(=O)N[C@@H](CCSC)C(=O)N[C@@H](CC(N)=O)C(=O)N[C@H](C(N)=O)[C@@H](C)O` [mt-108] (H-HSQGTFISDYSKALDEIHQKEFIAWLMNT-NH2; lactam 16-20; N-terminus assumed), the “GLP-1 Receptor relative activity” value (GLP-1 receptor) is reported as 12.50%, the “GIP Receptor relative activity” value (GIP receptor) is reported as 0.52% and the “Glucagon Receptor relative activity” value (glucagon receptor) is reported as 68.42%.

With `CC[C@H](C)[C@@H]1NC(=O)[C@@H](NC(=O)[C@H](CC(=O)O)NC(=O)[C@H](CC(C)C)NC(=O)[C@H](Cc2ccc(O)cc2)NC(=O)[C@H](CCCCN)NC(=O)[C@H](CO)NC(=O)[C@H](Cc2ccc(O)cc2)NC(=O)[C@H](CC(=O)O)NC(=O)[C@H](CO)NC(=O)[C@@H](NC(=O)[C@H](Cc2ccccc2)NC(=O)[C@@H](NC(=O)CNC(=O)[C@H](CCC(N)=O)NC(=O)[C@H](CO)NC(=O)[C@@H](N)Cc2ccc(O)cc2)[C@@H](C)O)[C@@H](C)O)CCC(=O)NCCCC[C@@H](C(=O)N[C@@H](CC(=O)O)C(=O)N[C@@H](Cc2ccccc2)C(=O)N[C@H](C(=O)N[C@@H](CC(N)=O)C(=O)N[C@@H](Cc2c[nH]c3ccccc23)C(=O)N[C@@H](CC(C)C)C(=O)N[C@@H](CC(C)C)C(=O)N[C@@H](C)C(=O)N[C@@H](CCC(N)=O)C(N)=O)C(C)C)NC(=O)[C@H](CCC(N)=O)NC(=O)[C@H](Cc2c[nH]cn2)NC1=O` [mt-109] (H-YSQGTFTSDYSKYLDEIHQKDFVNWLLAQ-NH2; lactam 16-20; N-terminus assumed) the “GLP-1 Receptor relative activity” value (GLP-1 receptor) was 0.78%, the “GIP Receptor relative activity” value (GIP receptor) was 6.99% and the “Glucagon Receptor relative activity” value (glucagon receptor) was 76.92%.

For `CC[C@H](C)[C@H](NC(=O)[C@H](CO)NC(=O)[C@H](Cc1ccc(O)cc1)NC(=O)[C@H](CC(=O)O)NC(=O)[C@H](CO)NC(=O)[C@@H](NC(=O)[C@H](Cc1ccccc1)NC(=O)[C@@H](NC(=O)CNC(=O)[C@H](CCC(N)=O)NC(=O)[C@H](CO)NC(=O)[C@@H](N)Cc1ccc(O)cc1)[C@@H](C)O)[C@@H](C)O)C(=O)N[C@@H](Cc1ccc(O)cc1)C(=O)N[C@@H](CC(C)C)C(=O)N[C@@H](CC(=O)O)C(=O)N[C@H]1CCC(=O)NCCCC[C@@H](C(=O)N[C@@H](CC(=O)O)C(=O)N[C@@H](Cc2ccccc2)C(=O)N[C@H](C(=O)N[C@@H](CC(N)=O)C(=O)N[C@@H](Cc2c[nH]c3ccccc23)C(=O)N[C@@H](CC(C)C)C(=O)N[C@@H](CC(C)C)C(=O)N[C@@H](C)C(=O)N[C@@H](CCC(N)=O)C(N)=O)C(C)C)NC(=O)[C@H](CCC(N)=O)NC(=O)[C@H](Cc2c[nH]cn2)NC(=O)[C@H]([C@@H](C)CC)NC1=O` [mt-110] (H-YSQGTFTSDYSIYLDEIHQKDFVNWLLAQ-NH2; lactam 16-20; N-terminus assumed), the “GLP-1 Receptor relative activity” value (GLP-1 receptor) was 1.49%, the “GIP Receptor relative activity” value (GIP receptor) was 9.62% and the “Glucagon Receptor relative activity” value (glucagon receptor) was 23.26%.

For `CC[C@H](C)[C@@H]1NC(=O)[C@@H](NC(=O)[C@H](CC(=O)O)NC(=O)[C@H](CC(C)C)NC(=O)[C@H](Cc2ccc(O)cc2)NC(=O)[C@H](CCCCN)NC(=O)[C@H](CO)NC(=O)[C@H](Cc2ccc(O)cc2)NC(=O)[C@H](CC(=O)O)NC(=O)[C@H](CO)NC(=O)[C@@H](NC(=O)[C@H](Cc2ccccc2)NC(=O)[C@@H](NC(=O)CNC(=O)[C@H](CCC(N)=O)NC(=O)[C@H](CO)NC(=O)[C@@H](N)Cc2c[nH]cn2)[C@@H](C)O)[C@@H](C)O)CCC(=O)NCCCC[C@@H](C(=O)N[C@@H](CC(=O)O)C(=O)N[C@@H](Cc2ccccc2)C(=O)N[C@H](C(=O)N[C@@H](CC(N)=O)C(=O)N[C@@H](Cc2c[nH]c3ccccc23)C(=O)N[C@@H](CC(C)C)C(=O)N[C@@H](CC(C)C)C(=O)N[C@@H](C)C(=O)N[C@@H](CCC(N)=O)C(N)=O)C(C)C)NC(=O)[C@H](CCC(N)=O)NC(=O)[C@H](Cc2c[nH]cn2)NC1=O` [mt-111] (H-HSQGTFTSDYSKYLDEIHQKDFVNWLLAQ-NH2; lactam 16-20; N-terminus assumed), the EC50 (GLP-1 receptor; GLP-1 Receptor EC50, nM) was 0.66 nM, the “GLP-1 Receptor relative activity” value (GLP-1 receptor) was 10.61% and the “GIP Receptor relative activity” value (GIP receptor) was 0.78%. For the same molecule, the “Glucagon Receptor relative activity” value (glucagon receptor) was 85.19%.

`CC[C@H](C)[C@@H]1NC(=O)[C@@H](NC(=O)[C@H](CC(=O)O)NC(=O)[C@H](CC(C)C)NC(=O)[C@H](Cc2ccc(O)cc2)NC(=O)[C@H](CCCCN)NC(=O)[C@H](CO)NC(=O)[C@H](Cc2ccc(O)cc2)NC(=O)[C@H](CC(=O)O)NC(=O)[C@H](CO)NC(=O)[C@@H](NC(=O)[C@H](Cc2ccccc2)NC(=O)[C@@H](NC(=O)CNC(=O)[C@H](CCC(N)=O)NC(=O)[C@H](CO)NC(=O)[C@@H](N)Cc2c[nH]cn2)[C@@H](C)O)[C@@H](C)O)CCC(=O)NCCCC[C@@H](C(=O)N[C@@H](CC(=O)O)C(=O)N[C@@H](Cc2ccccc2)C(=O)N[C@H](C(=O)N[C@@H](CC(N)=O)C(=O)N[C@@H](Cc2c[nH]c3ccccc23)C(=O)N[C@@H](CC(C)C)C(=O)N[C@@H](CC(C)C)C(=O)N[C@@H](C)C(=O)NCC(=O)NCC(=O)N2CCC[C@H]2C(=O)N[C@@H](CO)C(=O)N[C@@H](CO)C(=O)NCC(=O)N[C@@H](C)C(=O)N2CCC[C@H]2C(=O)N2CCC[C@H]2C(=O)N2CCC[C@H]2C(=O)N[C@@H](CO)C(N)=O)C(C)C)NC(=O)[C@H](CCC(N)=O)NC(=O)[C@H](Cc2c[nH]cn2)NC1=O` [mt-115] (H-HSQGTFTSDYSKYLDEIHQKDFVNWLLAGGPSSGAPPPS-NH2; lactam 16-20; N-terminus assumed) was tested, and the “GLP-1 Receptor relative activity” value (GLP-1 receptor) was 20.00%, the “GIP Receptor relative activity” value (GIP receptor) was 1.31% and the “Glucagon Receptor relative activity” value (glucagon receptor) was 11.36%.
